Data: patent US20230218654A1, “COMPOSITIONS AND METHODS FOR TREATING HYPERGLYCEMIA IN TYPE-2 DIABETES” (The Board of Regents of the university of Oklahoma, priority 2020, published 2023)
Entries after “also recorded” stand apart in the source; their conditions may differ.

Experiments:
Type in all cases: cell-based
[1] = tested on: differentiated C2C12 myocytes; assay: Glucose uptake assay; conditions: 500 nM MLN4924 6 h, 100 nM insulin 1 hour
Experimental: Differentiated C2C12 myocytes were treated with MLN4924 (500 nM) and then stimulated with 100 nM insulin as indicated. Glucose uptake into the cells was measured. Glucose uptake into the cells was increased in the presence of MLN4924.Results are mean+/-SD of 5 replicates. “* ”, p less than 0.05, vs Vehicle-treated control.“#”, vs. insulin treated, p less than 0.05.
C2C12 myoblast cells were cultured in DMEM medium supplemented with 10% FBS. When cells grow to 60% confluency, differentiation into myocytes was induced by culturing cells in DMEM supplemented with 2% horse serum for 4-6 days. Cells were then serum starved overnight and treated with 500 nM MLN4924 or DMSO for 6 h and then stimulated with 100 nM insulin for 1 hour as indicated. Glucose uptake was measured with a Glucose uptake Glo^tm assay kit that was purchased from Promega (Madison, WI).

[2] = tested on: AML12 mouse hepatocytes; assay: Western blot of insulin signaling and cullin neddylation in AML12 cells
Experimental: MLN4924 increases IRS protein and AKT activation in the presence of insulin. Mouse AML 12 hepatocytes were serum starved for 16 h. Cells were then pre-treated with MLN4924 for 1 h followed by 100 nM insulin stimulation for 4 h. Western blot was then performed to evaluate insulin signaling activation.
AML 12 cells were serum starved for 16 h. Cells were then pre-treated with 500 nM MLN4924 or vehicle (DMSO) for 1 h, followed by 100 µg/ml cycloheximide (CHX) and 100 nM insulin treatment.
AML12 cells were serum starved for 16 h. Cells were then pre-treated with 500 nM MLN4924 for 1 h followed by 100 nM insulin stimulation in time course.
FIG. 18A is a Western blot analysis showing that MLN4924 enhances hepatocyte insulin responsiveness (signaling) by delaying feedback IRS degradation. AML12 cells were serum starved for 16 h. Cells were then pre-treated with MLN4924 for 1 h followed by insulin stimulation for 4 h.
FIG. 18D is a Western blot analysis of insulin signaling in AML12 cells serum starved for 16 h, then pre-treated with 500 nM MLN4924 for 1 h followed by 100 nM insulin stimulation in time course.
FIG. 18E is a Western blot analysis of AML12 cells serum starved for 16 h then pre-treated with 500 nM MLN4924 or vehicle (DMSO) for 1 h, followed by 100 µg/ml cycloheximide (CHX) and 100 nM insulin treatment. Cells were collected at the indicated time for Western blotting.
FIG. 18F is a Western blot analysis of insulin signaling in AML12 cells serum starved for 16 h then pre-treated with 100 nM rapamycin and 500 nM MLN4924 as indicated for 1 h followed by additional 2 h incubation in the presence or absence of 100 nM insulin. Blots are representative of 2-4 independent experiments.
(§1) FIG. 20 is a Western blot analysis showing that MLN4924 enhances hepatocyte insulin responsiveness in cells treated with wortmannin by delaying feedback IRS degradation (related to FIG. 18A). AML12 cells were serum starved for 16 h then pre-treated with 1 µM wortmannin (Wort) and 500 nM MLN4924 as indicated for 1 h followed by additional 2 h incubation in the presence or absence of 100 nM insulin. Blots are representative of 2 independent experiments.
as §1, with “21” for “20”, “Torin 1” for “wortmannin”, “250 nM Torin1” for “1 µM wortmannin (Wort)”
MLN4924 and TAS4464 were purchased from MedChemExpress (MCE, Monmouth Junction, NJ). For cell treatment, MLN4924 and TAS4464 were dissolved in DMSO. Cells were serum starved overnight and then treated with MLN4924, TAS4464 and/or insulin as indicated. For injection in mice, MLN4924 and TAS4464 were first dissolved in DMSO, which was further suspended in 10% (2-hydroxypropyl)-β-cyclodextrin (Sigma, St. Louis, MO). The final solution contains 1% DMSO. The subcutaneous injection volume is 200 µl/mouse.
Protein lysates were prepared in RIPA buffer containing 1% SDS and protease inhibitors on ice for 1 h followed by brief sonication. After centrifugation, supernatant was used for SDS-PAGE and immunoblotting.
AML12 cells were a generous gift from Dr. Yanqiao Zhang (Northeast Ohio Medical University). AML12 cells were cultured in DMEM medium supplemented with a mixture of insulin-transferrin-selenium (#41400-045, ThermoFisher, Waltham, MA). For experiments, cells were cultured in serum free medium overnight before various treatments were initiated. The siGENOME SMARTpool siRNA and siControl were purchased from Dharmacon, Inc. (Lafayette, CO). The siRNA was transfected with Lipofectamine RNAiMAX reagent in a final concentration of 25 nM recommended by the manufacturer. […]

[3] = tested on: INS-1 832/13 rat pancreas β cells; assay: Insulin secretion assay in INS-1 832/13 cells
Experimental: Insulin secreted into the medium was measured, (c) Total remaining intracellular insulin was measured, (d) The % secreted insulin was the fraction of total medium insulin over the sum of insulin in the medium and cells. Results are from 3 independent experiments and expressed as mean ± SEM. Two-way ANOVA and Tukey post hoc test were used to calculate the p values.
INS-1 832/13 rat insulinoma cell line was purchased from Sigma-Aldrich (St. Louis, MO). Cells were cultured in 24-well plate in RPMI-1640 growth medium until 100% confluent. Cells were then treated with vehicle (DMSO) or 500 nM MLN4924 for 5 hrs. Cells were then incubated with 0.5 ml secretion assay buffer (SAB, 114 mM NaCl, 4.7 mM KCl, 1.2 mM KH2PO4, 1.16 mM MgSO4, 20 mM HEPES pH 7.2, 25.5 mM NaHCO3, 2.5 mM CaCl2, and 0.2% BSA) containing 2.5 mM glucose and either vehicle or 500 nM MLN4924 for 1 hr. This step was repeated once. Next, SAB containing 12 mM glucose (0.5 ml) was added to cells to stimulate insulin secretion for 1 hr. The SAB was then collected and cells were lysed in 0.2 ml 1X RIPA buffer. Insulin concentration in SAB and cell lysates was measured with an ELISA assay kit.

[4] = insulin stimulated, MLN4924 pre-treatment 1 h, insulin 4 h

## NS(=O)(=O)OC[C@@H]1C[C@@H](n2ccc3c(N[C@H]4CCc5ccccc54)ncnc32)C[C@@H]1O [MLN4924, ((1S,2S,4R)-4-(4-((1S)-2,3-dihydro-1H-inden-1-ylamino)-7H-pyrrolo[2,3-d]pyrimidin-7-yl)-2-hydroxycyclopentyl) methyl sulfamate]
[1]
  glucose uptake: increased glucose uptake
[2]; 500 nM MLN4924 + 100 nM rapamycin, 100 nM insulin
  IRS protein in the presence of rapamycin: did not further increase IRS protein
[2]; 500 nM, 100 nM insulin time course
  IRS1 S307 phosphorylation: also higher
[2]; 500 nM, 1 h, then 100 nM insulin in time course
  insulin signaling desensitization (IRS1(Y612), AKT(S473)): significantly delayed cellular insulin desensitization; also recorded: significantly delayed insulin signaling desensitization
[2]; 500 nM, 100 µg/ml cycloheximide (CHX) and 100 nM insulin
  insulin-induced IRS degradation: significantly delayed
[2]; Cul1 or Cul3 knockdown cells, 500 nM
  further MLN4924-mediated IRS enrichment and insulin sensitization: limited but not fully abolished
[2]; [4]
  AKT S473 phosphorylation: increased AKT S473 phosphorylation
  IR (Y1150) phosphorylation: but not IR (Y1150) phosphorylation
  IRS1(Y612) phosphorylation: enhanced IRS1(Y612) phosphorylation
  total IRS1 and IRS2 protein: dose-dependently increased total IRS1 and IRS2 protein
[2]; simultaneous knockdown of Cul1 and Cul3, 500 nM
  further IRS protein stabilization caused by MLN4924: largely abolished
[3]; 500 nM MLN4924, 7 hrs
  neddylation inhibition: strong neddylation inhibition
[3]; 500 nM MLN4924, 2.5 mM glucose
  basal insulin secretion: did not affect
[3]; 500 nM MLN4924, 12 mM glucose
  glucose-stimulated insulin secretion: did not affect
